Where two headings read alike, the source gives them in different places.

The nature of series [1]: Structural integrity of triester phosphoroalaninates by LC MS over 22-29 days. The format is physicochemical. On the procedure:
Instability of Triester Phosphoroalaninates
Intermediate compounds I-19 d2 and I-25 synthesised above are triesterphosphoro-alaninates resembling the prior art compound described in Yan et al, J Med Chem 2005 48 91-99:
The structural integrity of these model compounds was assessed by LC MS over a 22-29 day period, as follows: […]

Series [2] relates to THP-1 (human acute monocytic leukemia). Put plainly: Leukemia cell line activity assay (Cell Counting Kit-8, 5 days), THP-1.
Description: (§1) Compounds of the invention were evaluated for activity against the leukemia cell lines THP-1, EOL-1 and MV4-11, using the following assay:
(§2) Test compounds were made up to 10 mM stock solution in DMSO
(§3) Leukemia cells (THP-1, EOL-1 and MV4-11) were grown in a cell culture flask 75 cm^2 with approximately 100 ml complete cell medium. The cells were counted using a Scepter-hand held automated cell counter, using 60 μm sensors (Millipore) and suspended in complete cell medium to 2×10^5 cells. 100 μl of the cell suspension were seeded to all wells (2×10^4 cells/well).
(§4) The compounds were tested in twelve concentrations, 10-fold serial dilutions, 50 μM-5×10^−10 μM.
(§5) 100 μl from a compound dilution plate were transferred to the cell assay plate=200 μl/well total volume and incubated for 5 days, at 37° C., 5% CO2 incubator.
(§6) After 5 days, 10l of KIT-8 was added and the culture was incubated for 3-4 hours, at 37° C., 5% CO2 incubator.
(§7) Plate were read in the spectrophotometer at wavelength 450 nm with a reference filter of 620 nm.
(§8) CC50 values are calculated by plotting the degree of inhibition (compared to the vehicle ctrl) against the logarithm of the compound concentration. Result values in the dilution series are fitted to a 4-parameter sigmoidal dose-response curve described by the expression: F(x)=D+(A−D)/(1+(x/C)^B) where: • A=Minimum • B=Slope. • C=Inflection point. The inflection point is defined as the point on the curve where the curvature changes direction or signs. • D=Maximum • F=fraction inhibition
In series [3] the test system is EOL-1 (human). In words: Leukemia cell line activity assay (Cell Counting Kit-8, 5 days), EOL-1. As to conditions: read-out: EOL.1 CC50.
Description: as §1, §2, §3, §4, §5, §6, §7, §8
Series [4] concerns MV4-11 cells, human B-myelomonocytic leukemia. Put plainly: Leukemia cell line activity assay (Cell Counting Kit-8, 5 days), MV4-11.
Description: as §1, §2, §3, §4, §5, §6, §7, §8

Turning to `CCC[C@H](C)OC(=O)[C@H](C)N[P@](=O)(OC[C@]1(CO)C/C1=C/n1cnc2c(=O)[nH]c(N)nc21)Oc1ccc(Br)cc1` (single isomer, unassigned) [Intermediate I-19 d2], the LCMS purity in series [1] (Day 0) worked out at 96.86%; in series [1] (Day 5) it was 94.32%; in series [1] (Day 14) it was 88.76%; in series [1] (Day 22) it was 73.76%.

On to `CCC(CC)COC(=O)[C@H](CC(C)C)N[P@](=O)(OCC1(COC(=O)C(C)C)C/C1=C/n1ccc(N)nc1=O)Oc1ccccc1` (stereo partly drawn) [Example 34-2, 2-ethylbutyl((S)-(((Z)-2-((4-amino-2-oxopyrimidin-1(2H)-yl)methylene)-1-((isobutyryloxy)methyl)cyclopropyl)methoxy)(phenoxy)phosphoryl)-L-leucinate], for which the CC50 is 340 nM in series [2] (read-out: THP-1 CC50, THP-1 cells, 5 days incubation); 170 nM in series [3] (EOL-1 cells, 5 days incubation); 440 nM in series [4] (read-out: MV4-11 CC50, MV4-11 cells, 5 days incubation).

With `CCCC(CCC)COC(=O)[C@H](C)N[P@](=O)(OCC1(COC(=O)C(C)(C)C)C/C1=C/n1cnc2c(=O)[nH]c(N)nc21)Oc1ccccc1` (stereo partly drawn) [Example 38, ((Z)-2-((2-amino-6-oxo-1,6-dihydro-9H-purin-9-yl)methylene)-1-((((S)-(((S)-1-oxo-1-((2-propylpentyl)oxy)propan-2-yl)amino)(phenoxy)phosphoryl)ox)methyl)cyclopropyl)methyl pivalate], the CC50 is 190 nM in series [2] (Homo sapiens, THP-1, 120 h, read-out: THP-1 CC50, THP-1 cells, 5 days incubation); 210 nM in series [3] (Homo sapiens, EOL1, 120 h); 310 nM in series [4] (Homo sapiens, MV4-11, 120 h, read-out: MV4-11 CC50, MV4-11 cells, 5 days incubation).

Take `CC(C)OC(=O)[C@H](C)N[P@](=O)(OC[C@@]1(CO)C/C1=C/n1cnc2c(=O)[nH]c(N)nc21)Oc1ccc(C2(C)CC2)cc1` [Intermediate I-25, (S)-Isopropyl 2-(((S)-(((S,Z)-2-((2-amino-6-oxo-1H-purin-9(6H)-yl)methylene)-1-(hydroxymethyl)cyclopropyl)methoxy)(4-(1-methylcyclopropyl)phenoxy)phosphoryl)amino)propanoate]: the LCMS purity in series [1] (Day 0) is on record as 95.56%; in series [1] (Day 5), 88.14%; in series [1] (Day 14) it was 82.67%; in series [1] (Day 22), 77.76%; in series [1] (Day 29), 72.84%.

The values are drawn from patent publication US12221459B2, “Cancer treatment with (2,2-bishydroxymethyl) methylenecyclopropane nucleotides” (MEDIVIR AB, priority 2018, dated 2025).
